In ChEMBL document CHEMBL4402556, “Mycobacterium tuberculosis Decaprenylphosphoryl-β-d-ribose Oxidase Inhibitors: Expeditious Reconstruction of Suboptimal Hits into a Series with Potent in Vivo Activity” (J Med Chem, 2020):
Converted amounts (≈) assume the structure as drawn.

Key:
[1] = Inhibition of Mycobacterium tuberculosis DprE1 expressed in Escherichia coli BL21 (DE3) using farnesylphosphoryl-beta-D-ribose as substrate
[2] = tested on: Mycobacterium tuberculosis; experiment: Antitubercular activity against wild type Mycobacterium tuberculosis H37Rv ATCC 25618 assessed as bacterial growth inhibition measured after 6 days by resazurin assay; type: functional; details: H37Rv ATCC 25618, 144 h
[3] = Kinetic aqueous solubility of the compound in phosphate buffer saline at pH 7.4 after 1 hr by CLND method; type: physicochemical; details: phosphate buffered saline, read-out: Kinetic_solubility
[4] = tested on: Mycobacterium tuberculosis; experiment: Antitubercular activity against Mycobacterium tuberculosis H37Rv infected in po dosed C57BL/6 mouse model of acute infection assessed as effect on mycobacterial burden in lung pretreated with CYP inhibitor ABT 2 hrs prior followed by compound administration for 8 consecutive days starting from day 1 post-infection and measured after 24 hrs post-last dose; type: functional
[5] = tested on: Mycobacterium tuberculosis; experiment: (§1) Antitubercular activity against Mycobacterium tuberculosis H37Rv infected in po dosed C57BL/6 mouse model of acute infection assessed as reduction in mycobacterial burden in lung administration for 8 consecutive days starting from day 1 post-infection and measured after 24 hrs post-last dose; type: functional
[6] = tested on: Mycobacterium tuberculosis; experiment: Antitubercular activity against wild type Mycobacterium tuberculosis H37Rv ATCC 25618 transfected with pATB45luc plasmid expressing luciferase infected in human THP1 cells assessed as reduction in bacterial growth after 4 days by BrightGlo luciferase assay; type: functional; details: H37Rv ATCC 25618, 96 h
[7] = tested on: HepG2; experiment: Cytotoxicity against human HepG2 cells assessed as reduction in cell viability measured after 48 hrs by CellTiter-Glo assay; type: cell-based; details: HepG2, 48 h
[8] = tested on: Mycobacterium tuberculosis; experiment: Antibacterial activity against Mycobacterium tuberculosis transfected with pMV261 vector expressing DprE1 assessed as bacterial growth inhibition; type: functional
[9] = tested on: Escherichia coli; experiment: Antibacterial activity against Escherichia coli assessed as bacterial growth inhibition; type: functional
[10] = tested on: Staphylococcus aureus; experiment: Antibacterial activity against Staphylococcus aureus assessed as bacterial growth inhibition; type: functional
[11] = Solubility of the compound in FaSSIF; type: physicochemical
[12] = Clearance in CD-1 mouse at 1 mg/kg, iv administered as single dose measured up to 24 hrs by LC-MS/MS analysis; type: ADME, organism-based; details: in vivo
[13] = Volume of distribution at steady state in CD-1 mouse at 1 mg/kg, iv administered as single dose measured up to 24 hrs by LC-MS/MS analysis; type: ADME, organism-based; details: in vivo, read-out: Vdss
[14] = Half life in CD-1 mouse at 1 mg/kg, iv administered as single dose measured up to 24 hrs by LC-MS/MS analysis; type: ADME, organism-based; details: in vivo
[15] = Oral bioavailability in CD-1 mouse at 5 mg/kg administered as single dose measured up to 24 hrs by LC-MS/MS analysis; type: ADME, organism-based; details: in vivo
[16] = tested on: Mycobacterium tuberculosis; experiment: as §1, with “in” for “in po dosed”, “at 100 mg/kg, po treated” for “administration”, “dose (reference value: 5.8 log10cfu)” for “dose”; type: functional

| Structure (SMILES) | pIC50 [1] | MIC90 [2] [µM] | further results |
| --- | --- | --- | --- |
| CC1CCN(C(=O)C2CCN(c3nnc(-n4cccc4)s3)CC2)CC1 | 6.3 | 20.8 (≈ 7.48 µg/mL) | solubility kinetic at 1 h [3]: 328 µM (≈ 118 µg/mL) |
| O=C(C1CCN(c2nnc(-n3cccc3)s2)CC1)N1CCC(Cc2ccccc2)CC1 | 7.3 | 4 (≈ 1.74 µg/mL) | solubility kinetic at 1 h [3]: < 1 µM |
| COc1ncnc(Cn2cc(C(=O)NCCF)c3ncccc32)c1C | 7.4 | 4 (≈ 1.37 µg/mL) | ED99 [4]: 11 mg/kg; ED99 [5]: 164 mg/kg; MIC90 [6]: 0.62 µM (≈ 0.213 µg/mL); IC50 [7]: > 100 µM; MIC90 [8]: > 125 µM; solubility kinetic at 1 h [3]: 26 µM (≈ 8.93 µg/mL) |
| CCN(CC)CCC1CCN(C(=O)C2CCN(c3cc(N4CCOCC4)ncn3)CC2)CC1 | < 4 | > 125 | – |
| CC(C)C1CCN(C(=O)C2CCN(c3cccc(N4CCOCC4)n3)CC2)CC1 | 5 | > 125 | – |
| O=C(C1CCN(c2cc(N3CCOCC3)ncn2)CC1)N1CCC(Cc2ccccc2)CC1 | 7.6 | 0.6 (≈ 0.27 µg/mL) | MIC90 [6]: 0.07 µM (≈ 0.0315 µg/mL); MIC90 [8]: > 16 µM; solubility kinetic at 1 h [3]: 280 µM (≈ 126 µg/mL); MIC [9]: > 128 µg/mL; MIC [10]: > 128 µg/mL |
| CC1CCN(C(=O)C2CCN(c3cc(N4CCCC4)ncn3)CC2)CC1 | 5.9 | 23.4 (≈ 8.37 µg/mL) | – |
| CC(C)C1CCN(C(=O)C2CCN(c3cc(N4CCOCC4)ncn3)CC2)CC1 | 7.1 | 4 (≈ 1.61 µg/mL) | – |
| O=C(C1CCN(c2ccncn2)CC1)N1CCC(Cc2ccccc2)CC1 | 4.8 | > 125 | – |
| CC1CCN(C(=O)C2CCN(c3cc(N(C)C)ncn3)CC2)CC1 | 5 | 125 (≈ 41.4 µg/mL) | – |
| c1nc(N2CCCCC2)cc(N2CCOCC2)n1 | 4.1 | – | – |
| O=C(C1CCN(c2cc(N3CCOCC3)ncn2)CC1)N1CCC(CCN2CCCC2)CC1 | 4.1 | > 125 | – |
| O=C(C1CCN(c2cc(N3CCOCC3)ncn2)CC1)N1CCC(Cc2ccccc2)C1 (configuration not stated) | 6.9 | 4 (≈ 1.74 µg/mL) | – |
| CC(C)C1CCN(C(=O)C2CCN(c3cc(N4CCOCC4)ccn3)CC2)CC1 | 5.2 | > 125 | – |
| CN1CCN(c2cc(N3CCC(C(=O)N4CCC(Cc5ccccc5)CC4)CC3)ncn2)CC1 | 4.7 | 125 (≈ 57.8 µg/mL) | – |
| O=C(C1CCN(c2cc(N3CCOCC3)ncn2)CC1)N1CCC(Oc2ccc(Cl)cc2)CC1 | 7.5 | 1.5 (≈ 0.729 µg/mL) | – |
| CC(C)C1CCN(C(=O)C2CCN(c3ccnc(N4CCOCC4)c3)CC2)CC1 | 5.1 | > 125 | – |
| CC(=O)N1CCC(C(=O)N2CCC(C)CC2)CC1 | < 3 | – | – |
| O=C(C1CCN(c2cc(N3CCOCC3)ncn2)CC1)N1CCC(O)(Cc2ccccc2)CC1 | 5.8 | 10 (≈ 4.66 µg/mL) | – |

| Structure (SMILES) | pIC50 [1] | MIC90 [2] [µM] | further results |
| --- | --- | --- | --- |
| O=C(C1CCN(c2cc(N3CCOCC3)ncn2)CC1)N1CCCC(Cc2ccccc2)C1 (configuration not stated) | 6.2 | 32 (≈ 14.4 µg/mL) | – |
| O=C(C1CCN(c2cc(N3CCOCC3)ncn2)CC1)N1CCC(Nc2ccccc2)CC1 | 6.4 | 10 (≈ 4.51 µg/mL) | – |
| CC(=O)N1CCC(C(=O)N2CCC(Cc3ccccc3)CC2)CC1 | < 4 | – | – |
| O=c1nc(N2CCOCC2)cc(N2CCCCC2)[nH]1 | 4.5 | – | – |
| O=C(C1CCN(c2cc(N3CCCCC3)ncn2)CC1)N1CCC(Cc2ccccc2)CC1 | 7.1 | 2.5 (≈ 1.12 µg/mL) | solubility kinetic at 1 h [3]: 28 µM (≈ 12.5 µg/mL) |
| CC(=O)N1CCN(c2cc(N3CCOCC3)ncn2)CC1 | < 4 | – | – |
| O=C(C1CCN(c2cc(N3CCOCC3)ncn2)CC1)N1CCC(Oc2ccc(Cl)cc2F)CC1 | 7.7 | 0.5 (≈ 0.252 µg/mL) | – |
| O=C(C1CCN(c2cc(N3CCOCC3)ncn2)CC1)N1CCN(c2ccc(F)cc2)CC1 | 6.2 | 20 (≈ 9.09 µg/mL) | – |
| CC1CCN(C(=O)C2CCN(c3cc(N4CCCCC4)ncn3)CC2)CC1 | 6.5 | 15.6 (≈ 5.8 µg/mL) | solubility kinetic at 1 h [3]: > 488 µM |
| O=C(C1CCN(c2cc(N3CCOCC3)ncn2)CC1)N1CCc2ccccc2C1 | 6.5 | 10 (≈ 4.08 µg/mL) | – |
| FC1(F)CCN(c2cc(N3CCOCC3)ncn2)C1 | 4.1 | – | – |
| O=C(C1CCN(c2ncnc(N3CCOCC3)c2F)CC1)N1CCC(Cc2ccccc2)CC1 | 7.2 | 1.3 (≈ 0.608 µg/mL) | – |
| O=C(C1CCN(c2cc(N3CCOCC3)[nH]c(=O)n2)CC1)N1CCC(Cc2ccccc2)CC1 | 7.4 | 3 (≈ 1.4 µg/mL) | – |
| O=C(C1CCN(c2cc(N3CCOCC3)ncn2)CC1)N1CCC(Cc2cccnc2)CC1 | 7 | 3.3 (≈ 1.49 µg/mL) | – |
| Nc1nc(N2CCOCC2)cc(N2CCC(C(=O)N3CCC(Cc4ccccc4)CC3)CC2)n1 | 7.3 | 3.5 (≈ 1.63 µg/mL) | – |
| CC1CCN(C(=O)C2CCN(c3cc(NC4CCCC4)ncn3)CC2)CC1 | 4.7 | > 125 | – |
| O=C(C1CCN(c2cc(N3CCOCC3)ncn2)CC1)N1CCC(CC2CCCC2)CC1 | 7.6 | 3 (≈ 1.32 µg/mL) | – |
| c1nc(N2CCOCC2)cc(N2CCC3(CCCO3)CC2)n1 | 4.1 | – | – |
| CN(C)c1cc(N2CCCCC2)ncn1 | 3.9 | – | – |

| Structure (SMILES) | pIC50 [1] | MIC90 [2] [µM] | further results |
| --- | --- | --- | --- |
| O=C(C1CCN(c2cc(N3CCOCC3)ncn2)CC1)N1CCC(Oc2ccccc2)CC1 | 8.1 | 2 (≈ 0.903 µg/mL) | – |
| O=C(c1ccc(F)cc1)N1CCN(C(=O)C2CCN(c3cc(N4CCOCC4)ncn3)CC2)CC1 | 4.6 | > 80 | – |
| O=C(C1CCN(c2nccc(N3CCCCC3)n2)CC1)N1CCC(Cc2ccccc2)CC1 | 6.8 | 16 (≈ 7.16 µg/mL) | – |
| c1nc(N2CCCCC2)cc(N2CCCCC2)n1 | 4.1 | – | – |
| O=C(C1CCN(c2cc(N3CCOCC3)ncn2)CC1)N1CCC(Cc2ccc(F)cc2)CC1 | 7.6 | 0.6 (≈ 0.281 µg/mL) | ED99 [5]: 30 mg/kg; MIC90 [6]: 0.21 µM (≈ 0.0982 µg/mL); IC50 [7]: 50.1 µM; MIC90 [8]: 15 µM (≈ 7.01 µg/mL); solubility kinetic at 1 h [3]: 160 µM (≈ 74.8 µg/mL); solubility [11]: 40 µM (≈ 18.7 µg/mL); clearance [12]: 38.9 mL/min/kg; Vd [13]: 1.3 L/kg; half-life [14]: 27 min; bioavailability [15]: 100% |
| CC1(C)CCCN(c2cc(N3CCOCC3)ncn2)C1 | 4.6 | – | – |
| O=C(C1CCN(c2cc(N3CCCCC3)ncn2)CC1)N1CCCCC1 | 5.8 | 35.6 (≈ 12.7 µg/mL) | solubility kinetic at 1 h [3]: > 405 µM |
| O=C(C1CCN(c2cc(N3CCOCC3)ncn2)CC1)N1CCCCC1Cc1ccccc1 (configuration not stated) | 5.4 | 125 (≈ 56.2 µg/mL) | – |
| CC1CCN(C(=O)C2CCN(c3cc(N4CCOCC4)ncn3)CC2)CC1 | 6 | 15.6 (≈ 5.83 µg/mL) | – |
| c1nc(N2CCCCCC2)cc(N2CCOCC2)n1 | < 4 | – | – |
| O=C(C1CCN(c2cc(N3CCOCC3)ncn2)CC1)N1CCOC(Cc2ccccc2)C1 (configuration not stated) | 5.2 | > 125 | – |
| O=C(C1CCN(c2cncc(N3CCOCC3)n2)CC1)N1CCC(Cc2ccccc2)CC1 | 7.4 | 3 (≈ 1.35 µg/mL) | – |
| CC(C)N(C)c1cc(N2CCOCC2)ncn1 | < 4 | – | – |
| CCC1CCN(C(=O)C2CCN(c3cc(N4CCOCC4)ncn3)CC2)CC1 | 6.8 | 8 (≈ 3.1 µg/mL) | – |
| O=C(C1CCN(c2cc(N3CCOCC3)ncn2)CC1)N1CCC(Oc2ccc(F)cc2F)CC1 | 7.5 | 1 (≈ 0.488 µg/mL) | – |
| O=C(C1CCN(c2cc(N3CCOCC3)ncn2)CC1)N1CCC(Cc2ccccn2)CC1 | 6.6 | 8.8 (≈ 3.97 µg/mL) | – |
| O=C(C1CCN(c2cc(N3CCOCC3)ncn2)CC1)N1CCC(Oc2ccc(F)cc2)CC1 | 7.3 | 1.7 (≈ 0.798 µg/mL) | ED99 [5]: 29 mg/kg; MIC90 [6]: 0.62 µM (≈ 0.291 µg/mL); IC50 [7]: 31.6 µM; MIC90 [8]: 62 µM (≈ 29.1 µg/mL); solubility kinetic at 1 h [3]: ≥ 364 µM; solubility [11]: 74 µM (≈ 34.7 µg/mL); clearance [12]: 23.5 mL/min/kg; Vd [13]: 1.7 L/kg; half-life [14]: 60 min; bioavailability [15]: 78.7% |
| Cc1ccc(OC2CCN(C(=O)C3CCN(c4cc(N5CCOCC5)ncn4)CC3)CC2)nc1 | 6.2 | 16 (≈ 7.47 µg/mL) | – |
| COc1c(N2C[C@@H]3CCCN[C@@H]3C2)c(F)cc2c(=O)c(C(=O)O)cn(C3CC3)c12 [MOXIFLOXACIN] | – | – | Activity [16]: 2.7 log10CFU |
